Test results from article PMC12677843, “Multidisciplinary Preclinical Investigations on Ferrocenyl, Ruthenocenyl, and Benzyl Derivatives of Niridazole as New Drug Candidates against Schistosomiasis” (Chemmedchem, 2025).
Like-named read-outs stand apart in the source and are kept apart here.

What was measured:
[1] = system: adult S. mansoni; experiment: In vitro drug sensitivity assay on adult S. mansoni (microscopic viability scoring); type: cell-based, Schistosoma mansoni; conditions: for mean drug effect at 10 µM on adult S. mansoni, 24 h / mean drug effect at 10 µM on adult S. mansoni, 48 h / mean drug effect at 10 µM on adult S. mansoni, 72 h: in percentage of DMSO control; for EC50: 37 °C, 5% CO2; for Fold activity of niridazole: potency on adult S. mansoni relative to niridazole, EC50 at 72 h; for drug effect at 50 µM on adult S. mansoni: 72 h incubation, normalized to DMSO control, active if ≥60%
Procedure: Figure 3 In vitro activity at 50 µM of the 12 compounds on adult S. mansoni. Adult schistosomes were incubated in culture media for 72 h at 37 °C and 5% CO2 with either compound (50 µM) or a DMSO (0.5%) control. The viability of the worms was microscopically evaluated and scored (0—3, in 0.5 steps) every 24 h. Results are from two independent experiments, each performed in duplicate. Drug activities were normalized to the DMSO controls. Data represent mean ± SD in percentage of DMSO control. […]
In vitro evaluation on adult S. mansoni
After a week for acclimatization to the new environment with controlled conditions (temperature: 22 °C ± 2 °C, humidity: 50 % ± 10 %, 12:12 h light/dark photocycle), four-week-old female NMRI mice (Charles River, Sulzfeld, Germany) were subcutaneously infected with approximately 100 cercariae to establish the S. mansoni infection. In the S. mansoni infected mice the worms were allowed to develop for 7 weeks into the adult stage, before they were extracted from the mesenteric veins of the euthanized mice. The adult worms were placed into RPMI 1640 (Gibco, Waltham MA, USA) medium supplemented with 1 % penicillin/streptomycin mixture and 5 % iFCS at 37 °C and 5 % CO 2. The drug sensitivity assay was set up in a 24-well plate with two wells containing each two pairs of S. mansoni worms per compound and concentration.
The final volume per well was 2 mL, containing the culture medium and the corresponding amount of drug dissolved in DMSO. The maximum concentration tested was 50 µM, corresponding to 0.5 % DMSO, to which all the other wells were adapted […]
to, so that all test concentrations contained always the same amount of DMSO.
Additionally, 2 wells with negative controls containing only DMSO and the culture medium were included. After an incubation period of 72 h at 37 °C and 5 % CO 2, the worms were microscopically evaluated. The drug effect was determined 24, 48 and 72 h post-exposure based on the phenotype of the adult worms, using a viability scale ranging from three referring to viable, motile worms with no change in their tegument to zero standing for the death of the worms.
All described in vitro studies with mice involved, were conducted at the Swiss Tropical and Public Health Institute, first in Basel, later in Allschwil, and had the approval by the corresponding veterinary authorities of the Canton Basel-Stadt (permit no. 2070)

[2] = system: S. mansoni newly transformed schistosomula (NTS); experiment: In vitro evaluation on newly transformed schistosomula (NTS); type: cell-based, Schistosoma mansoni; conditions: for EC50: 72 h incubation, 37 °C, 5% CO2; for drug effect at 50 µM on S. mansoni NTS: highest tested concentration 50 µM
Procedure: 2. Experimental section for biological experiments
Stock solutions of the test compounds
Stock solution of a concentration of 10 mM in pure DMSO (Sigma-Aldrich, Switzerland) were prepared of the 12 compounds, these stock solutions were used for all in vitro evaluations from activity tests in S. mansoni to the cytotoxic determinations in HUH7 hepatocyte-derived carcinoma cells, and in SH-SY5Y neuroblastoma cells.
The solutions were thoroughly vortexed and sonicated to enable a good dissolution of the compounds and homogenous stock solutions.
2.1 In vitro evaluations in S. mansoni
In vitro evaluation on newly transformed schistosomula (NTS)
To obtain newly transformed schistosomula (NTS) the lifecycle of S. mansoni (strain originates from West Africa, Liberia) is maintained at the Swiss Tropical and Public Health Institute (Swiss TPH). As previously described, cercariae are collected from infected Biomphalaria glabrata snails and then mechanically transformed into NTS. 8 After HBSS (Gibco, Waltham MA, USA) washing to get rid of the detached tails, the NTS were kept overnight (min. 12 h, max. 24 h) in culture medium at 37 °C and 5 % CO2 to complete their transformation process, before the drug sensitivity assay was started. The drug assays were performed in the same culture medium consisting of medium M199 (Gibco, Waltham MA, USA) supplemented with 5 % v/v inactivated fetal calf serum (iFCS; Bioconcept AG, Allschwil, Switzerland), 1% antibiotics mixture developed by Mäser et al., 9 and 1 % penicillin 10,000 U/mL, and streptomycin 10 mg/mL solution (Sigma-Aldrich, Buchs, Switzerland). The assay was performed in a 96-well plate, with 30−40 NTS per well in a final volume of 250 μL. NTS incubated in culture medium containing 0.5 % DMSO but no drug served as negative controls.
Microscopic evaluation was performed after 24, 48 and 72 h of incubation of the parasites at 37 °C and 5 % CO 2. Their overall viability was scored from 0 (death) to 3 (full viability) by a phenotypic screening method based on their motility, morphology, […]
and granularity. […]

[3] = system: juvenile S. mansoni; experiment: In vitro drug sensitivity assay on juvenile S. mansoni; type: cell-based, Schistosoma mansoni; conditions: 72 h incubation, 37 °C, 5% CO2
Procedure: Juvenile worms were gained through cultivation of NTS as previously described. 10 In short, NTS were obtained as described above, then directly after the mechanical transformation process the newly transformed schistosomula were placed in a special culturing medium. The culture medium consists of Panserin 401, w: L-Glutamine, serum free all-round medium (Pan Biotech, Aidenbach, Germany) supplemented with 20 % human serum and 500 U/mL penicillin, […] streptomycin (LuBioScience, Switzerland). 96-well transparent polystyrene flat bottom plates were used for the in vitro growth procedure, with 40 to 60 NTS per well in 100 µL culture medium. The bordering wells of the plate were filled solely with medium to counteract evaporation and to keep the humidity as steady as possible. The plates were incubated for 21 days at 5 % CO2 and at 37 °C, with regular medium changes every 3 to 4 days. After the 21 days culturing period, the schistosomulae developed into juveniles. For the drug sensitivity assay, juvenile worms were incubated over 72 h (5 % CO 2 and 37 °C) with the test compound in the same medium, as used for the culturing process. In a 96-well plate, 250 µL medium containing the test compound and six juvenile worms, ideally of both sexes were placed in each well. All compounds were tested twice independently at 50, 10, 5 and 1 µM in duplicates. The viability of the worms was evaluated microscopically after 24, 48 and 72 h of continuous drug exposure using the same phenotypic screening method as described before. […]

[4] = Stability in DMSO-d6 monitored by 1H NMR; type: physicochemical; conditions: room temperature, 0, 6, 24, 30 and 48 h
Procedure: Stability is a key factor that needs to be investigated in medicinal chemistry, particularly with metal complexes.^[ [44] ^] We randomly chose four niridazole derivatives that we dissolved in DMSO‐d 6 (A3, B1, C2, and D1). We then monitored by ^1H NMR spectroscopy any change in the spectra after 0, 6, 24, 30, and 48 h at room temperature. No shifted peaks or new peaks were found for all the tested compounds over 2 days, showing that they are stable in DMSO‐d 6. The NMR spectra of these studies can be found in the Supporting Information (Figure S32–S35).
Figure S31 DEPT spectrum of C2
1H NMR spectra for stability
Preparation of the control samples for 1H NMR analysis: Compounds B1, D1, A3 and
C2 were dissolved in DMSO- d6. Compound A2 was dissolved in DMSO- d6 with D2O
(4:1, v/v). NMR spectra were recorded in deuterated solvents on Bruker Avance-400
in the room temperature for 0, 6, 24, 30 and 48 hours or 0, 3, 6 and 24 hours. […]

[5] = 24 h drug exposure, read-out: EC50 on adult S. mansoni, 24 h
[6] = 48 h drug exposure, read-out: EC50 on adult S. mansoni, 48 h
[7] = 72 h drug exposure, read-out: EC50 on adult S. mansoni, 72 h
[8] = Schistosoma mansoni, 72 h, 72 h drug exposure, read-out: EC50 on adult S. mansoni, 72 h

SMILES	mean drug effect at 10 µM on adult S. mansoni, 24 h ([1]; 24 h) [%]	mean drug effect at 10 µM on adult S. mansoni, 48 h ([1]; 48 h) [%]	EC50 [1, 5] [µM]	EC50 [1, 6] [µM]	EC50 [1, 7] [µM]	Fold activity of niridazole [1]	EC50 [2] [µM]	EC50 [3] [µM]	drug effect at 50 µM on adult S. mansoni [1]	EC50 [1, 8] [µM]	EC50 ([2]; Schistosoma mansoni) [µM]	drug effect at 50 µM on S. mansoni NTS [2]	stability in DMSO-d6 (1H NMR) [4]	mean drug effect at 10 µM on adult S. mansoni, 72 h ([1]; 72 h) [%]	EC50 ([1]; Schistosoma mansoni, 24 h, 24 h drug exposure, read-out: EC50 on adult S. mansoni, 24 h) [µM]	EC50 ([1]; Schistosoma mansoni, 48 h, 48 h drug exposure, read-out: EC50 on adult S. mansoni, 48 h) [µM]	EC50 ([3]; Schistosoma mansoni) [µM]
C=CC([c-]1cccc1)N1CCN(c2ncc([N+](=O)[O-])s2)C1=O.[Fe+2].c1cc[cH-]c1 (racemic) [Compound A5]	36.19	57.59	> 50	5.3	1.5	3.8	> 50	12.2	–	–	–	–	–	–	–	–	–
Nc1ncc([N+](=O)[O-])s1 [Compound 2]	–	–	–	–	–	–	–	–	No drug effect	> 50	> 50	No drug effect	–	–	–	–	–
O=C1N(C[c-]2cccc2)CCN1c1ncc([N+](=O)[O-])s1.[Fe+2].c1cc[cH-]c1 [Compound A3]	30.75	44.28	50.5	9.7	3.5	1.6	> 50	5.7	less active than niridazole	–	–	–	stable	66.09	–	–	–
O=C1N(CCCCCC[c-]2cccc2)CCN1c1ncc([N+](=O)[O-])s1.[Fe+2].c1cc[cH-]c1 [Compound A4]	–	–	–	–	> 50	–	> 50	–	No drug effect	–	–	No drug effect	–	–	–	–	–
O=C(Nc1ncc([N+](=O)[O-])s1)[c-]1cccc1.[Ru+2].c1cc[cH-]c1 [Compound B1]	45.53	44.35	–	–	6.9	–	> 50	> 50	less active than niridazole	–	–	–	stable	57.20	–	–	–
O=C1N(C[c-]2cccc2)CCN1c1ncc([N+](=O)[O-])s1.[Ru+2].c1cc[cH-]c1 [Compound B2]	31.28	44.99	38.1	–	3.2	1.8	> 50	8	less active than niridazole	–	–	–	–	65.57	–	–	–
O=C1N(Cc2ccccc2)CCN1c1ncc([N+](=O)[O-])s1 [Compound C2]	–	–	–	–	–	–	–	–	No drug effect	> 50	> 50	No drug effect	stable	–	–	–	–
O=C(Nc1ncc([N+](=O)[O-])s1)C12CC3CC(CC(C3)C1)C2 [Compound D1]	55.18	66.75	9.8	–	–	1.5	–	–	–	3.7	7.9	–	stable	65.76	< 10	4.2	29.2
